Values after ≈ are worked out from the molar mass of the structure shown. Like-named read-outs stand apart in the source and are kept apart here.
How the values were obtained:
[1] = system: Methicillin-Resistant S. aureus Isolates; test: In vitro anti-bacterial activity, fourth test, Table 5; format: cell-based, Staphylococcus aureus; settings: Staphylococcus aureus, read-out: MIC90
Description: In a fourth test, the anti-bacterial activity of the compound having Formula IV was tested against some methicillin-resistant S. aureus bacteria strains and compared to the anti-bacterial activity of three commercially available antibiotics: nadifloxacin (“NDFX”), ofloxacin (“OFLX”), and sparfloxacin (“SPFX”).

[2] = system: S. aureus Clinical Isolates; test: In vitro activity against clinical isolates, sixth test, Table 7; format: cell-based; settings: Staphylococcus aureus, 49 isolates
[3] = system: penicillin-resistant S. aureus; test: MIC90, Japanese Society of Chemotherapy guidelines (1993), Table 3; format: cell-based; settings: Staphylococcus aureus, read-out: MIC90
Description: (§1) In a second test, compounds having Formulae IV and V, their racemic mixture, and OFLX were tested in vitro against S. aureus strains that are resistant to methicillin or penicillin. The test was conducted according to the guidelines of the Japanese Society of Chemotherapy (1993).

[4] = system: methicillin-resistant S. aureus; test: as above; format: cell-based; settings: Staphylococcus aureus, read-out: MIC90
Description: as §1

[5] = system: OFLX-resistant Enterobacteriaceae; test: MIC90, agar plate dilution method (NCCLS), Table 2; format: cell-based
Description: (§2) The MIC90 values for this test were determined by the agar plate dilution method according to the National Committee for Clinical Laboratory Standards (“NCCLS”).

[6] = system: APC-resistant Haemophilus influenza.; test: MIC90, agar plate dilution method (NCCLS), Table 2; format: cell-based; settings: for MIC90: Haemophilus
Description: as §2

[7] = system: GM-resistant P. aeruginosa; test: MIC90, agar plate dilution method (NCCLS), Table 2; format: cell-based; settings: 10 isolates; for MIC90: Pseudomonas aeruginosa
Description: as §2

GM-resistant S. aureus = test: MIC90, agar plate dilution method (NCCLS), Table 2; format: cell-based; settings: Staphylococcus aureus, 10 isolates
Description: as §2

[8] = system: PCG-resistant S. pneumoniae; test: MIC90, agar plate dilution method (NCCLS), Table 2; format: cell-based; settings: 10 isolates; for MIC90: Streptococcus pneumoniae
Description: as §2

OFLX-resistant S. aureus = test: MIC90, agar plate dilution method (NCCLS), Table 2; format: cell-based; settings: Staphylococcus aureus, 10 isolates
Description: as §2

[9] = system: Gentamicin-resistant Staphylococcus aureus; test: In vitro anti-bacterial activity, resistant clinical isolates, fifth test, Table 6; format: cell-based; settings: read-out: MIC90
From the text: (§3) As disclosed above, most of these bacteria strains are also relevant to infections of the ear and upper respiratory tract.

[10] = system: Penicillin-resistant Streptococcus pneumoniae; test: as above; format: cell-based; settings: read-out: MIC90
From the text: as §3

[11] = system: Gentamicin-resistant Pseudomonas aeruginosa; test: as above; format: cell-based; settings: read-out: MIC90
From the text: as §3

[12] = system: Ofloxacin-resistant Staphylococcus aureus; test: as above; format: cell-based; settings: read-out: MIC90
From the text: as §3

[13] = system: S. pneumoniae Clinical Isolates; test: In vitro activity against clinical isolates, sixth test, Table 7; format: cell-based; settings: 78 isolates
[14] = system: Ofloxacin-resistant Enterobacteriaceae; test: organism not typed; format: cell-based
From the text: as §3

SMILES: CC1COc2c(N3CCN(C)CC3)c(F)cc3c(=O)c(C(=O)O)cn1c23 (stereo not drawn) [OFLX, ofloxacin]
- MIC90 ([1]; ATCC33591, Staphylococcus aureus (ATCC 33591)): 0.05 µg/mL (≈ 0.138 µM)
- MIC90 ([1]; ATCC33592, Staphylococcus aureus (ATCC 33592)): 0.39 µg/mL (≈ 1.08 µM)
- MIC90 ([1]; ATCC33593, Staphylococcus aureus (ATCC 33593)): 0.2 µg/mL (≈ 0.553 µM)
- MIC90 ([1]; Staphylococcus aureus (No. 395)): 0.2 µg/mL (≈ 0.553 µM)
- MIC90 ([1]; Staphylococcus aureus (No. 415)): 0.78 µg/mL (≈ 2.16 µM)
- MIC90 ([1]; Staphylococcus aureus (No. 419)): 3.13 µg/mL (≈ 8.66 µM)
- MIC90 ([1]; Staphylococcus aureus (No. 420)): 1.56 µg/mL (≈ 4.32 µM)
- MIC90 ([1]; Staphylococcus aureus (No. 421)): 1.56 µg/mL (≈ 4.32 µM)
- MIC90 [2]: 8 µg/mL (≈ 22.1 µM)
- MIC90 ([3]; ATCC11632, S. aureus (ATCC 11632)): 0.2 µg/mL (≈ 0.553 µM)
- MIC90 ([3]; ATCC13301, S. aureus (ATCC 13301)): 0.2 µg/mL (≈ 0.553 µM)
- MIC90 ([4]; ATCC33591, S. aureus (ATCC 33591)): 0.39 µg/mL (≈ 1.08 µM)
- MIC90 ([4]; ATCC33592, S. aureus (ATCC 33592)): 0.2 µg/mL (≈ 0.553 µM)
- MIC90 ([4]; ATCC33593, S. aureus (ATCC 33593)): 0.2 µg/mL (≈ 0.553 µM)
- MIC90 ([4]; S. aureus (No. 395)): 0.39 µg/mL (≈ 1.08 µM)
- MIC90 ([4]; S. aureus (No. 415)): 0.2 µg/mL (≈ 0.553 µM)
- MIC90 ([4]; S. aureus (No. 419)): 0.39 µg/mL (≈ 1.08 µM)
- MIC90 ([4]; S. aureus (No. 420)): 0.2 µg/mL (≈ 0.553 µM)
- MIC90 ([4]; S. aureus (No. 421)): 0.39 µg/mL (≈ 1.08 µM)
- MIC90 Range ([5]; OFLX-resistant Enterobacteriaceae, 10 isolates): 8 to 64 µg/mL
- MIC90 ([5]; read-out: MIC90 Geometric Mean): 21.1 µg/mL (≈ 58.4 µM)
- MIC90 ([5]; read-out: MIC90 Value): 64 µg/mL (≈ 177 µM)
- MIC90 Range ([6]; APC-resistant Haemophilus influenza., 10 isolates): ≦0.06 μg/ml
- MIC90 ([6]; read-out: MIC90 Geometric Mean): ≤ 0.06 µg/mL
- MIC90 ([6]; read-out: MIC90 Value): ≤ 0.06 µg/mL
- MIC90 Range [7]: 0.5 to 128 µg/mL
- MIC90 ([7]; read-out: MIC90 Geometric Mean): 6.5 µg/mL (≈ 18 µM)
- MIC90 ([7]; read-out: MIC90 Value): 64 µg/mL (≈ 177 µM)
- MIC90 (GM-resistant S. aureus; read-out: MIC90 Geometric Mean): 16 µg/mL (≈ 44.3 µM)
- MIC90 (GM-resistant S. aureus; read-out: MIC90 Value): > 128 µg/mL
- MIC90 Range [8]: 1 to 2 µg/mL
- MIC90 ([8]; read-out: MIC90 Geometric Mean): 1.52 µg/mL (≈ 4.21 µM)
- MIC90 ([8]; read-out: MIC90 Value): 2 µg/mL (≈ 5.53 µM)
- MIC90 (OFLX-resistant S. aureus; read-out: MIC90 Geometric Mean): 104 µg/mL (≈ 288 µM)
- MIC90 (OFLX-resistant S. aureus; read-out: MIC90 Value): > 128 µg/mL
- MIC90 [9]: 128 µg/mL (≈ 354 µM)
- MIC90 [10]: 2 µg/mL (≈ 5.53 µM)
- MIC90 [11]: 64 µg/mL (≈ 177 µM)
- MIC90 [12]: > 128 µg/mL
- MIC90 Range [13]: 1 to 2 µg/mL
- MIC90 ([13]; Streptococcus pneumoniae): 1 µg/mL (≈ 2.77 µM)
- MIC90 [14]: 64 µg/mL (≈ 177 µM)
